ChEMBL document CHEMBL1140202, “A novel cell-penetrating peptide sequence derived by structural minimization of a snake toxin exhibits preferential nucleolar localization” (J Med Chem, 2008)
Where a SMILES comes first, the peptide text is derived from it. [ ]: non-standard residue; d: D form. Ahx = NCCCCCC(=O)O

Legend:
HeLa [1] = assay: Cellular uptake in human HeLa cells assessed as drug translocation through nucleolar membrane by time-lapsed confocal microscopy; type: ADME, cell-based
HeLa [2] = assay: Drug penetration in human HeLa cells at 15 to 50 uM by time-lapsed confocal microscopy relative to control; type: ADME, cell-based
HeLa [3] = assay: Toxicity against human HeLa cells upto 100 uM after 24 hrs by MTT assay; type: cell-based

| Activity (HeLa [1]) | Drug uptake (HeLa [2]) | Molecule | Activity (HeLa [3]) |
| --- | --- | --- | --- |
| Dose-dependent effect and tde | 50% | NCCCC[C@H](NC(=O)CCCCCNC(=O)CNC(=O)CNC(=O)[C@H](CCCCN)NC(=O)[C@H](CCCCN)NC(=O)[C@H](Cc1cnc[nH]1)NC(=O)[C@H](CS)NC(=O)[C@H](CCC(N)=O)NC(=O)[C@H](CCCCN)NC(=O)[C@@H](N)Cc1ccc(O)cc1)C(=O)N[C@@H](CCCCN)C(=O)NCC(=O)N[C@@H](CO)C(=O)NCC(=O)O (H-YKQCHKKGG[Ahx]KKGSG-OH) | Non-toxic |
| – | – | H-GSGKKGGKKHCQKY-OH | Non-toxic |
| – | – | H-GSGKKGGKKICQKY-OH | Non-toxic |
| – | 50% | H-YKQCHKKGGKKGSG-OH | Non-toxic |
